{"source": "patent US5596016A", "about": "“1,2-disubstituted aromatic chelates” (Albion International, Inc., priority 1994, dated 1997)", "key": {"[1]": {"test": "Iron excretion after oral dosing, sample weighed in grams (Table 2, headed Urine; evidently feces)", "format": "in vivo, rats", "details": "for Urine: Total Mg Fe (per Total Gm Sample): oral, one gram sample of 15% iron", "protocol": "(§1) Bioavailability: One gram samples of each of the above iron vanillin chelates and ferrous sulfate sales were administered orally to rats as a slurry consisting of one gram of sample contained in 4 ml of water. The samples were given via a syringe fitted with a balled needle and injected into the stomach of the animals. Each one gram sample of 15% iron would deliver 150 mg of Fe which is ten times the recommended daily allowance of iron for a human being of average size. Obviously, such a dosage is many times higher than required for the test animals considering that the rats weighed an average of about 125 grams each. One sample of two grams of chelate suspended as a slurry in 8 ml of water was found too be too much volume and overfilled the stomach of the rat resulting in the loss of some of the dosage.\n(§2) The animals were observed over a two day (48 hour) period and their urine and feces were collected. At the end of the 48 hour period the animals were sacrificed and blood samples were taken.\n(§3) There follows a comparison of the urine, feces and blood tests taken from the rats at 24 and 48 hours post dosage."}, "[2]": {"test": "Iron excretion in urine after oral dosing, sample in ml (Table 3)", "format": "in vivo, rats", "details": "one gram sample of 15% iron", "protocol": "as §1, §2, §3"}, "[3]": {"system": "Rats", "test": "Observation of rats over 48 hours after oral dosing", "format": "in vivo", "protocol": "as §1, §2"}}, "note": "“Also recorded” adds a separate entry of the source.", "data": [{"substance": "ferrous sulfate [FeSO4]", "values": [{"measurement": "Urine: Total Mg Fe (per Total Gm Sample)", "setting": "[1]; 24 hours", "result": 1.18, "unit": "Mg Fe"}, {"measurement": "Urine: Total Mg Fe (per Total Gm Sample)", "setting": "[1]; 48 hours", "result": 61.6, "unit": "Mg Fe"}, {"measurement": "excretion of iron in the feces", "setting": "[1]; after 48 hours, versus iron vanillate", "result": "much higher excretion of iron in the feces"}, {"measurement": "Urine: Total Mg Fe (per Total Ml Sample)", "setting": "[2]; 24 hours", "result": 0.020, "unit": "Mg Fe"}, {"measurement": "Urine: Total Mg Fe (per Total Ml Sample)", "setting": "[2]; 48 hours", "result": 0.010, "unit": "Mg Fe"}, {"measurement": "appearance and behavior of rats", "setting": "[3]; 48 hour period, one gram sample of 15% iron, oral", "result": "appeared listless and produced little urine and feces; also recorded: listless, non-reactive, retired and demonstrated abnormal breathing behavior"}, {"measurement": "time without food or water consumption post dosage", "setting": "[3]; one gram sample of 15% iron, oral", "result": "approximately 26 hours"}, {"measurement": "time to hematuria following dosage", "setting": "[3]; one of the ferrous sulfate fed rats", "result": "≤ 2.5", "unit": "h"}]}]}
